According to patent US20120321584A1, “PROCESSES FOR PREPARING AMINE SALTS OF KMUP-3 AND USE THEREOF” (KAOHSIUNG MEDICAL UNIVERSITY, priority 2011, published 2012):
Counter-ions that a name gives are not always drawn.

How the values were obtained:
[1] = test system: isolated spontaneously beating right atrium; experiment: Spontaneously beating right atrium, organ bath; format: cell-based, guinea-pig
Procedure: (§1) Organ bath experiments and tissue procurement. Guinea-pigs were killed by a blow on the head. Their hearts were quickly excised and trimmed of excess tissues. The atrium was carefully removed and placed at room temperature (20˜25° C.) in a Krebs solution of the following composition (mM): NaCl 113, KCl 4.8, CaCl2 2.2, KH2PO4 1.2, MgCl2 1.2, NaHCO3 25, dextrose 11.0; bubbled with a 95% O2+5% CO2 mixture, followed by separation of right and left atrium for subsequent experiments.
Spontaneously beating right atrium was dissected from the heart and mounted in a 10 ml organ bath with one end fixed and the other end connected to a force displacement transducer (Grass, Model FT03). The frequency of contraction was measured on a separate channel by a tachometer (Coulbourn, Model S77-26) connected to a high-speed videograph (Coulbourn, AT L19-69). These experiments were carried out at 32.5° C. in Krebs solution. The atria strip was pre-stretched to a baseline tension of 0.5 g and equilibrated for 90 min in aerated (95% O2+5% CO2) Krebs solution before the experimental protocols were initiated. The atria were then allowed a 30-60 min washout period to re-stabilize. KMUP-3 or KMUP-3 amine salt (0.1, 1.0, 10, 100 μM) were then cumulatively added to the organ bath. […]

[2] = test system: electrically-stimulated left atria; experiment: Electrically-stimulated beating left atrium, organ bath; format: cell-based, guinea-pig; conditions: 0.1~30 μM, electrical stimulation 1 Hz
[3] = test system: electrically-stimulated left atria; experiment: as above; format: cell-based, guinea-pig; conditions: propranolol and Y27632 1 μM, C3 exoenzyme 50 μg/mL, ketanserin 1.0 μM, L-NAME 100 μM
Procedure: as §1
Quiescent left atria free of connective tissues were dissected and mounted in an organ bath under a resting tension of 0.5 g. Organs were bathed at 32.5° C. in aerated Krebs solution and electrically stimulated with 1 Hz at […] via two platinum electrodes placed at either side. The positive inotropic effect was measured by determining the cumulative concentration-response curves in the presence of KMUP-3 or KMUP-3 amine salt (0.1, 1.0, 10, 100 μM). To examine the possible involvement of NO and cAMP/cGMP in the action of KMUP-3 or KMUP-3 amine salt on electrically-stimulated beating atria, pre-incubated with a ROCK inhibitor Y27632 (1.0 μM), a β-adrenoceptor blocker propranolol (1.0 μM), eNOS inhibitors L-NAME (100 μM), 7-nitroindazole (100 μM) and 5-HT inhibitor ketanserin (1.0 μM) was performed for 15 min prior to the addition of KMUP-3 or KMUP-3 amine salt to measure the development of beating force and heart rate for 10 min.

[4] = Hemodynamic measurements in anesthetized rats (LVSP, dP/dt, MABP, HR); format: in vivo, Wistar rats; conditions: intravenous pretreatment at 1 mg/kg; KMUP-3 1 mg/kg, i.v.
Procedure: Hemodynamic measurements were carried out in male Wistar rats weighting 300˜350 g, anesthetized with pentobarbital sodium (40 mg kg^−1, i.p.). In brief, polyethylene tubing (PE50) was placed in the trachea to keep the airway patent, and rats continued to breathe spontaneously. Subsequently, rats were used to record hemodynamic and cardiovascular function. Vascular catheters (PE50) were placed in the femoral arteries to measure mean arterial blood pressure (MABP) and heart rate (HR). Changes of MABP and HR caused by KMUP-3 or KMUP-3 amine salt were recorded from the femoral artery with a pressure transducer (Gould, Model P50, U.S.A.), connected with a Pressure Processor Amplifier (Gould, Model 13-4615-52, U.S.A.). A femoral vein was used for intravenous administration of KMUP-3 or KMUP-3 amine salt. A specialized transducer tip catheter was placed in the right carotid artery and advanced into the left ventricle of the heart for measurement of left ventricular pressure (LVSP) or contractility; dP/dt at 50 mm Hg, an index of cardiac contractility, was derived from the left ventricular pressure trace; post-hoc vascular resistance was calculated as mean arterial blood pressure/peripheral cardiac output (MABP/PCO). Body temperature was monitored throughout the experiment and maintained between 37 and 37.5° C. by using a heating pad.
Each dose of active drugs was administered as a 20-min infusion in a series of escalating doses dissolved in a 5% dextrose water vehicle. […] KMUP-3 HCl or KMUP-3 amine salt were infused at 0.03, 0.05, and 0.075 μg/kg/20 min for the measurement of FABP, intraperitoneally injected at 0.03, 0.05 and 0.1 mg/kg for the measurement of MABP and HR and infused by intravenous injection for 2 min at 0.5, 1.0, 3.0 mg/kg dissolved in 5% dextrose water vehicle (2 ml) for the measurement of LV systolic pressure (LVSH), ABP, dP/dt, and HR. The primary hemodynamic variables were computed using commercial software and a signal processing workstation. Animals were randomly divided into one of six treatment or vehicle groups. After the completion of the surgical protocol, animals were allowed to stabilize for 1 h, and baseline data were collected at 5-min intervals for 30 min before the treatment.

L-type Ca2+ channels = experiment: Ca2+ entry currents in H9c2 cells, whole cell patch-clamp; format: cell-based, rat; conditions: KMUP-3 10 μM with KT5823 3 μM or Y27642 50 μM
Description: To measure the ICa through L-type Ca^2+ channels, whole cell patch-clamp electrophysiology was used in rat heart-derived H9c2 cells as previously described. In brief, H9c2 cells were placed in a recording dish and perfused with a bath solution containing (in mM): 135 tetraethylammonium (TEA)-Cl, 1.8 CaCl2, 2 MgCl2, 10 glucose, and 10 HEPES (pH 7.4, Tris). […] Negative pressure was briefly applied to rupture the membrane and a gigaohm seal was obtained.
H9c2 cells were clamped at −80 mV with step depolarizations (300 ms) from −80 to 0 mV to evoke whole-cell ICa. Voltage clamped cells were equilibrated for 15 min prior to experimentation. Membrane currents were recorded on an Axopatch 700A amplifier (Axon Instruments, Union City, Calif.), filtered at 1 kHz using a low-pass Bessel filter, digitized at 5 kHz and stored on a computer for subsequent analysis with Clampfit 9.0. Following equilibration, ICa was monitored in the presence and absence of KMUP-3 or KMUP-3 amine salt (1, 10, 100 μM). To ascertain whether PKG or ROCK signaling was involved in the KMUP-3-induced decreases in ICa, H9c2 cells were incubated for 15 min with the combination of KMUP-3 or KMUP-3 amine salt (10 μM) and PKG antagonist KT5823 (3 μM) or ROCK inhibitor Y-27632 (50 μM). All electrical recordings were performed at room temperature.

PDE-3 = experiment: Protein expression of PDE-3 by optical density after KMUPs salts (Table 2); format: cell-based; conditions: KMUPs salts 10 μM, 120 min; vehicle (without treatment) = 100 %
Procedure: (§2) Protein extraction and Western blotting analysis. Briefly, after incubation with test agents in an organ bath, isolated beating atrium was frozen and pulverized to a fine powder at the temperature of liquid nitrogen. Atrium powders were then homogenized in protein extraction reagent (Pierce Biotechnology, Inc., Rockford, Ill.) by sonication. The samples were sonicated 10 sec three times and centrifuged at 13,000 rpm at 4° C. for 30 min. The protein concentrations of supernatants were determined by using bovine serum albumin as the standard. The cell extracts were then boiled in a ratio of 4:1 with sample buffer (Tris 100 mM, pH 6.8; glycerol 20%, Sodium dodecyl sulfate (SDS) 4% and bromophenol blue 0.2%). Electrophoresis was performed using 10% SDS-PAGE and transferred to nitrocellulose membranes (Millipore Corp., Billerica, Mass.). The membrane was blocked with Tris-buffered saline (TBS; 20 mM Tris and 137 mM NaCl, pH 7.6) containing 0.1% Tween 20 (TTBS) and 5% nonfat milk at room temperature for 1 h, washed with TTBS, and then incubated overnight at 4° C. in the appropriate primary antibody for PKARI, RhoA, ROCKII, p-CIP-17, CPI-17 and PKG1α1β. […] The intensity of the bands was measured by densitometry. eNOS or phosphorylated eNOS were extracted from cell culture of neonatal myocytes, PA ring and aortic ring (2-3 mm) of rats and measured by Western blotting analysis.

eNOS = experiment: Protein expression of eNOS by optical density after KMUPs salts (Table 2); format: cell-based; conditions: KMUPs salts 10 μM, 120 min; vehicle (without treatment) = 100 %
Procedure: as §2

PDE-5 = experiment: Protein expression of PDE-5 by optical density after KMUPs salts (Table 2); format: cell-based; conditions: KMUPs salts 10 μM, 120 min; vehicle (without treatment) = 100 %
Procedure: as §2

ROCKII = experiment: Protein expression of ROCKII by optical density after KMUPs salts (Table 2); format: cell-based; conditions: KMUPs salts 10 μM, 120 min; vehicle (without treatment) = 100 %
Procedure: as §2

PDE-4 = experiment: Protein expression of PDE-4 by optical density after KMUPs salts (Table 2); format: cell-based; conditions: KMUPs salts 10 μM, 120 min; vehicle (without treatment) = 100 %
Procedure: as §2

CN1[C@@H]2CC[C@H]1C[C@@H](OC(=O)C(CO)c1ccccc1)C2 (stereo partly shown) [atropine]
Effect of pretreatment on the beating frequency decreased by KMUP-3 ([1]; atropine 1 μM, 7-nitroindazole 100 μM): up-regulated

Cc1[nH]c(=O)c(C#N)cc1-c1ccncc1 [milrinone]
Left atrium contractility [2]: concentration-dependently increased | Chronotropic effect (beating frequency) ([1]; 0.1-30 μM): increased | Inotropic effect (contraction force) ([1]; 0.1-30 μM): increased

C3 exoenzyme: C3 exoenzyme, used at 50 μg/mL as pretreatment
Effect of pretreatment on KMUP-3-induced positive inotropic activity [3]: reduced

O=C(c1ccc(F)cc1)C1CCN(CCn2c(=O)[nH]c3ccccc3c2=O)CC1 [ketanserin, reference compound]
Effect of pretreatment on the effects (LVSP, dP/dt, MABP) induced by KMUP-3 [4]: inhibited | Effect of pretreatment on KMUP-3-induced positive inotropic activity [3]: reduced

COC(=O)[C@@]1(OC)C[C@H]2O[C@]1(C)n1c3ccccc3c3c4c(c5c6ccccc6n2c5c31)C(=O)N(C)C4 [KT5823]
Effect of combination on currents reduced by KMUP-3 (L-type Ca2+ channels): restored

Cn1c(=O)c2c(ncn2CCN2CCN(c3ccc([N+](=O)[O-])cc3)CC2)n(C)c1=O [KMUP-3-HCl]
PDE-3 protein expression, optical density (%) (PDE-3): 55 ± 2.5% | eNOS protein expression, optical density (%) (eNOS): 138 ± 5.2% | PDE-5 protein expression, optical density (%) (PDE-5): 48 ± 1.9% | ROCKII protein expression, optical density (%) (ROCKII): 42 ± 2.2% | PDE-4 protein expression, optical density (%) (PDE-4): 48 ± 2.1%
